Results on 16 compounds are retold here after patent US11339130B1 (Blade Therapeutics, Inc., priority 2016, dated 2022).

The structures appear in SMILES notation. Read-outs that look alike come from different tables or passages of the source.

Common to all, as to format: biochemical
Assay [1] deals with T1, Human Calpain 2/NS1 (Homo sapiens, UniProt P17655).
T1 sequence (P17655 1-700): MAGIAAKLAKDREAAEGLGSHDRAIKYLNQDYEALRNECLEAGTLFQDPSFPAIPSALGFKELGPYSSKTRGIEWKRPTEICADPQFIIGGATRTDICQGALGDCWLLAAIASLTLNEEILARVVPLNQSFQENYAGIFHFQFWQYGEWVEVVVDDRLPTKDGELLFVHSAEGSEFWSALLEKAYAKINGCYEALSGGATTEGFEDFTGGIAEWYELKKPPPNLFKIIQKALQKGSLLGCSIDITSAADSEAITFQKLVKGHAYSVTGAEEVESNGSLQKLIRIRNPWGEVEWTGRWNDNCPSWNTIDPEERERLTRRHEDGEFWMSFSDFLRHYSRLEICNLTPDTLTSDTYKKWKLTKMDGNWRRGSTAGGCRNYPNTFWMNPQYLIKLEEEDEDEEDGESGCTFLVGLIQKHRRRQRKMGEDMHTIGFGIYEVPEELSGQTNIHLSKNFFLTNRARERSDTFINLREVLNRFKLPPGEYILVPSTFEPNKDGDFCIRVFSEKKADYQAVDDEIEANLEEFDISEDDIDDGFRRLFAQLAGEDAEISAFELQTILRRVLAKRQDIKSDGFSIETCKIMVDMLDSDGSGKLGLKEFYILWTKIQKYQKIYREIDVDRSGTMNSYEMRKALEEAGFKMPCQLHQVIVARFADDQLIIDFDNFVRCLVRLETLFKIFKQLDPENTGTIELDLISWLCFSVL
T1 sequence (P04632 1-268 partner): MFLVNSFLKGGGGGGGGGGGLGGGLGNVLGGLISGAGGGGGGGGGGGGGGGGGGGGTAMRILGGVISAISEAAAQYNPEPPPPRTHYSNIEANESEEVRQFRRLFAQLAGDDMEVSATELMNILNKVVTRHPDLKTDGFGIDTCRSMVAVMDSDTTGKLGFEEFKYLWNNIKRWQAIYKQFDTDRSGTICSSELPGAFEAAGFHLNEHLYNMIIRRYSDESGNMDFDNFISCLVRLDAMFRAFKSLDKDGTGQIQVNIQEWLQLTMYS
Put plainly: Calpain inhibition continuous fluorescence (FRET) assay, Human Calpain 2/NS1. The following applies: read-out: Human Calpain 2/NS1 IC50. The gist of the method: (§1)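 Fluorescence increase from the cleaved 5-FAM/QXL 520 substrate, read at 490/520 nm, gave activity. Calcium was supplied with the substrate to activate the enzyme in situ after a 25C enzyme-inhibitor preincubation, and IC50s were fit from initial slopes.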

Assay [2] has as its target T2, Human Calpain 1/NS1 (Homo sapiens, UniProt P07384).
T2 sequence (P07384 1-714): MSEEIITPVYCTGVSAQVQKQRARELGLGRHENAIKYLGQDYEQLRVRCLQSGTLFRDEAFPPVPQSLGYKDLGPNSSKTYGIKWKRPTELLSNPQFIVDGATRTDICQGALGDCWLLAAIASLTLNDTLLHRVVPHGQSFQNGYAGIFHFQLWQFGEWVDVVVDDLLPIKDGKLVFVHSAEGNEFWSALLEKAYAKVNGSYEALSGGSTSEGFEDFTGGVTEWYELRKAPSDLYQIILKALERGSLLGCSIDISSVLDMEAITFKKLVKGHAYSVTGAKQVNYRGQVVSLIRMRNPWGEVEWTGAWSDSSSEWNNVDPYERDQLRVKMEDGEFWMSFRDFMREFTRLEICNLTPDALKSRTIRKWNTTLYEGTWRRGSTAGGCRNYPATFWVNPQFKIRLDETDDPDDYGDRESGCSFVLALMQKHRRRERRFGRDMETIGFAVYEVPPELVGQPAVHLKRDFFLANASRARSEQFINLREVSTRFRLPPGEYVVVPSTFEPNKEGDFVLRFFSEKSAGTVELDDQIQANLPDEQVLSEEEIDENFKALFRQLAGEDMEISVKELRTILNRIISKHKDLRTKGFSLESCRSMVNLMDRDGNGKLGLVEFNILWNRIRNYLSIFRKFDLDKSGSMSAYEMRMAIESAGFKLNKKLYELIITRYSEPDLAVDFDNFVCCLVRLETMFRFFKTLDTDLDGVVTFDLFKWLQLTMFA
T2 sequence (P04632 1-268 partner): T1 sequence (P04632 1-268 partner)
Put plainly: Calpain inhibition continuous fluorescence (FRET) assay, Human Calpain 1/NS1. To be noted: read-out: Human Calpain 1/NS1 IC50. The gist of the method: as §1

In assay [3] the target is T3, Human Calpain 9/NS1 (Homo sapiens, UniProt O14815).
T3 sequence (O14815 1-690): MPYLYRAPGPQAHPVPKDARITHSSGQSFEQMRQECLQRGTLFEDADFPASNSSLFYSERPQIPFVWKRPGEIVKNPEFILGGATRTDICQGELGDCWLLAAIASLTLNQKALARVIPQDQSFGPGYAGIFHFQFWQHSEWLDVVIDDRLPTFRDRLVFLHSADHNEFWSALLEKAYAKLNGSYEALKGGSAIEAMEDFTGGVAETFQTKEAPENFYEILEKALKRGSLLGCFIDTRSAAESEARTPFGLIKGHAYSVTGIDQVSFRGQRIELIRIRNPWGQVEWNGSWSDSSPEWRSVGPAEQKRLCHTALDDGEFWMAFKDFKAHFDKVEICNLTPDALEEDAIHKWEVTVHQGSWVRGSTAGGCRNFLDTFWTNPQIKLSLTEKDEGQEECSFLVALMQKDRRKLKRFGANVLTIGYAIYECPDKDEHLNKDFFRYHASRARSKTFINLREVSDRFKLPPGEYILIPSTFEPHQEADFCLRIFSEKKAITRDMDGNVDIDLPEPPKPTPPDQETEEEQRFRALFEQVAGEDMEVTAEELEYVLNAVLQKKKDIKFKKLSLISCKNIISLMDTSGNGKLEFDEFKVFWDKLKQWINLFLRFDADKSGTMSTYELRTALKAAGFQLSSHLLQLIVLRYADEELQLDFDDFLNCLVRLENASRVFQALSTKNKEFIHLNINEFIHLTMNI
T3 sequence (P04632 1-268 partner): T1 sequence (P04632 1-268 partner)
As to the kind of experiment: Calpain inhibition continuous fluorescence (FRET) assay, Human Calpain 9/NS1. To be noted: read-out: Human Calpain 9/NS1 IC50. The procedure, abridged: as §1

Turning to `Cc1noc(-c2ccc3c(c2)OCO3)c1C(=O)N[C@@H](Cc1ccccc1)C(=O)C(N)=O` [Compound 20, (S)—N-(4-amino-3,4-dioxo-1-phenylbutan-2-yl)-5-(benzo[D][1,3]dioxol-5-yl)-3-methylisoxazole-4-carboxamide], the IC50 in assay [1] (Column B), in assay [2] (Column A) and in assay [3] (Column C) was under 3 µM each time.

`O=C[C@H](Cc1ccccc1)NC(=O)c1scnc1-n1ncc2ccccc21` [Compound 22, (S)-4-(1H-indazol-1-yl)-N-(1-oxo-3-phenylpropan-2-yl)thiazole-5-carboxamide]: the IC50 in assay [1] (Column B), in assay [2] (Column A) and in assay [3] (Column C) was under 3 µM each time.

As to `Cc1cc(C(=O)N[C@@H](Cc2ccccc2)C(=O)C(N)=O)nn1-c1ncc(-c2ccccc2)s1` [Compound 115, (S)—N-(4-amino-3,4-dioxo-1-phenylbutan-2-yl)-5-methyl-1-(5-phenylthiazol-2-yl)-1H-pyrazole-3-carboxamide], the IC50 in assay [1] (Column B) is under 3 µM; in assay [2] (Column A), over 10 µM; in assay [3] (Column C) it was over 10 µM.

`Cc1ccc(-c2c(C(=O)N[C@@H](Cc3ccccc3)C(=O)C(N)=O)cnn2C)cc1` [Compound 167, (S)—N-(4-amino-3,4-dioxo-1-phenylbutan-2-yl)-1-methyl-5-(p-tolyl)-1H-pyrazole-4-carboxamide]: the IC50 in assay [1] (Column B), in assay [2] (Column A) and in assay [3] (Column C) was under 3 µM throughout.

For `CC(C)(C)c1cc(C(=O)N[C@@H](Cc2ccccc2)C(=O)C(=O)NC2CC2)n(-c2ccccc2)n1` [Compound 137, (S)-3-(tert-butyl)-N-(4-(cyclopropylamino)-3,4-dioxo-1-phenylbutan-2-yl)-1-phenyl-1H-pyrazole-5-carboxamide], the IC50 in assay [1] (Column B), in assay [2] (Column A) and in assay [3] (Column C) was over 10 µM in each case.

For the compound `O=C[C@H](Cc1ccccc1)NC(=O)c1cncn1-c1ccn(-c2ccccc2)n1` [Compound 34, (S)—N-(1-oxo-3-phenylpropan-2-yl)-1-(1-phenyl-1H-pyrazol-3-yl)-1H-imidazole-5-carboxamide], the IC50 in assay [1] (Column B), in assay [2] (Column A) and in assay [3] (Column C) was under 3 µM throughout.

For the compound `NC(=O)C(=O)[C@H](Cc1ccccc1)NC(=O)c1[nH]cnc1-c1ccccc1` [Compound 48, (S)—N-(4-amino-3,4-dioxo-1-phenylbutan-2-yl)-4-phenyl-1H-imidazole-5-carboxamide], the IC50 in assay [1] (Column B), in assay [2] (Column A) and in assay [3] (Column C) was 3 to 10 µM throughout.

As for `Cn1cc(C(=O)NC(Cc2ccccc2)C(=O)C(N)=O)c(C2CCOC2)n1` (stereo not drawn) [Compound 627, N-(4-amino-3,4-dioxo-1-phenylbutan-2-yl)-1-methyl-3-(tetrahydrofuran-3-yl)-1H-pyrazole-4-carboxamide], the IC50 is under 3 µM in assay [1], 3 to 10 µM in assay [2] and 3 to 10 µM in assay [3].

`Cc1cc(C(=O)N[C@@H](Cc2ccccc2)C(=O)C(N)=O)n(-c2ncccc2C)n1` [Compound 66, (S)—N-(4-amino-3,4-dioxo-1-phenylbutan-2-yl)-3-methyl-1-(3-methylpyridin-2-yl)-1H-pyrazole-5-carboxamide]: the results for the IC50 in assay [1] (Column B), in assay [2] (Column A) and in assay [3] (Column C) were under 3 µM, 3 to 10 µM and under 3 µM, respectively.

With `COc1cccc(-c2nn(C)cc2C(=O)NC(Cc2ccccc2)C(=O)C(N)=O)n1` (stereo not drawn) [Compound 487, N-(4-amino-3,4-dioxo-1-phenylbutan-2-yl)-3-(6-methoxypyridin-2-yl)-1-methyl-1H-pyrazole-4-carboxamide], the results for the IC50 in assay [1], in assay [2] and in assay [3] were under 3 µM, 3 to 10 µM and under 3 µM, respectively.

`Cc1cc(C(=O)N[C@@H](Cc2ccccc2)C(=O)C(N)=O)nn1-c1nc(-c2ccccc2)cs1` [Compound 80, (S)—N-(4-amino-3,4-dioxo-1-phenylbutan-2-yl)-5-methyl-1-(4-phenylthiazol-2-yl)-1H-pyrazole-3-carboxamide]: the IC50 was under 3 µM in assay [1] (Column B), 3 to 10 µM in assay [2] (Column A) and 3 to 10 µM in assay [3] (Column C).

With `Cn1ncc(C(=O)N[C@@H](Cc2ccccc2)C(=O)C(N)=O)c1-c1cccc(C(F)(F)F)n1` [Compound 194, (S)—N-(4-amino-3,4-dioxo-1-phenylbutan-2-yl)-1-methyl-5-(6-(trifluoromethyl)pyridin-2-yl)-1H-pyrazole-4-carboxamide], the IC50 in assay [1] (Column B), in assay [2] (Column A) and in assay [3] (Column C) was under 3 µM throughout.

Take `O=C(NC1CC1)C(=O)[C@H](Cc1ccccc1)NC(=O)c1scnc1-n1ncc2ccccc21` [Compound 86, (S)—N-(4-(cyclopropylamino)-3,4-dioxo-1-phenylbutan-2-yl)-4-(1H-indazol-1-yl)thiazole-5-carboxamide]: the IC50 in assay [1] (Column B), in assay [2] (Column A) and in assay [3] (Column C) was under 3 µM each time.

For the compound `Cc1cccc(-c2nn(C)cc2C(=O)NC(Cc2ccccc2)C(=O)C(N)=O)n1` (stereo not drawn) [Compound 316, N-(4-amino-3,4-dioxo-1-phenylbutan-2-yl)-1-methyl-3-(6-methylpyridin-2-yl)-1H-pyrazole-4-carboxamide], the IC50 in assay [1] was over 10 µM; in assay [2] it was over 10 µM; in assay [3] it was 3 to 10 µM.

Consider `COc1ccc(C[C@H](NC(=O)c2c(C)noc2-c2ccccc2)C(=O)C(N)=O)cc1` [Compound 46, (S)—N-(4-amino-1-(4-methoxyphenyl)-3,4-dioxobutan-2-yl)-3-methyl-5-phenylisoxazole-4-carboxamide], for which the IC50 in assay [1] (Column B), in assay [2] (Column A) and in assay [3] (Column C) was under 3 µM throughout.

For `CCn1ncc(Cl)c1C(=O)N[C@@H](Cc1ccccc1)C(=O)C(N)=O` [Compound 311, (S)—N-(4-amino-3,4-dioxo-1-phenylbutan-2-yl)-4-chloro-1-ethyl-1H-pyrazole-5-carboxamide], the IC50 in assay [1], in assay [2] and in assay [3] was under 3 µM each time.
